Source: patent publication US12509447B2, “Small molecule compound” (Technoderma Medicines Pte Ltd, priority 2019, dated 2025)

Columns and labels:
[1] = target: JAK1 (Homo sapiens, UniProt P23458); assay: Inhibition of JAK kinase activity, EZ Reader microfluidic phosphorylation of peptide substrate: JAK1; assay type: biochemical; settings: JAK1 kinase 20 nM; highest final concentration 10 μM, 1:3 serial dilution, 8 points, duplicates
Excerpt: (§1) EZ Reader available from PerkinElmer can be used for detecting the phosphorylation of polypeptide substrates catalyzed by kinases. This device is based on microfluidic separation technology, and can directly detect fluorescence labeled substrates and products. The separation step is achieved in a microfluidic chip by controlling the pressure and electric field intensity. In a kinase experiment, the product conversion rate is generally controlled at 20-30%. This biological assay method is used for identifying the inhibitory effect of the compounds on JAK.
(§2) The compound powder was dissolved in DMSO, sealed and stored in a refrigerator at −20° C. The in-house compound Ref1 was used as a positive control for testing of JAK1, JAK2 and Tyk2, and Ref2 was used as a positive control for testing of JAK3.
(§3) • S2.1. 1M HEPES buffer: 0.5M HEPES free acid and 0.5M HEPES sodium salt are weighed, added into ultrapure water for dissolution, brought to a desired volume, filtered and stored in a refrigerator at 4° C. • S2.2. 40 mM ATP solution: dissolved in a 50 mM HEPES buffer solution, prepared into 40 mM, aliquoted, and cryopreserved in a refrigerator at −20° C. • S2.3. 0.5% Tween 20: 100% Tween 20 was diluted with ultrapure water, and stored in a refrigerator at 4° C. • S2.4. 35% bovine serum albumin: a 35% bovine serum albumin solution is prepared in ultrapure water, aliquoted, and stored in a refrigerator at −20° C. • S2.5. 1M dithiothreitol solution: dithiothreitol is formulated into a 1M solution with ultrapure water, aliquoted, and stored in a refrigerator at −20° C. • S2.6. 0.5 mM Jaktide Peptide substrate solution: it is dissolved in 50 mM HEPES to 0.5 mM, aliquoted, and stored in a refrigerator at −20° C. • S2.7. 0.5 mM IRStide Peptide substrate solution: it is dissolved in 50 mM HEPES to 0.5 mM, aliquoted, and stored in a refrigerator at −20° C. • S2.8. Assay Buffer: 20 mM HEPES buffer, pH 7.4, 10 mM magnesium chloride, 0.01% bovine serum albumin BSA, 0.0005% Tween-20, and a 1 mM dithiothreitol solution. • S2.9. Stop Buffer: 180 mM HEPES buffer, 20 mM ethylenediamine tetraacetic acid (EDTA), and 0.2% Coating Reagent 3. • S2.10. Separation Buffer: 100 mM HEPES buffer, 10 mM EDTA, 0.0005% Tween 20, 0.1% Coating Reagent 3, and 1% dimethyl sulfoxide. 3. Experimental Procedures • S3.1. Preparation of compound plate
(§4) The compound is dissolved in dimethyl sulfoxide to 10 mM, a certain volume is taken and diluted to 0.6 mM, 10 μl of the diluted 0.6 mM solution is taken and added into a 384 microplate or 1:3 serial dilution, with a total of 8 concentration points. • S3.2. Compound layout
(§5) • positive control (HPE1): Ref1, final concentration: 10 μM • positive control (HPE1): Ref2, final concentration: 10 μM • negative control (ZPE): DMSO, with a final concentration of 1.6% • Compound: the highest final concentration at 10 μM, 1:3 serial dilution, with 8 concentration points and in duplicates. 4. Experimental operation steps • S4.1. the experimental plate was added with 250 nl of the compound per well with ECHO, and centrifuged at 1,000 rpm for 1 minute; • S4.2. the precipitate was added with 5 μl of the experimental buffer, and shaken for several seconds to fully dissolve the compound; • S4.3. the solution was added with 5 μl of a 3× substrate solution, as well as 5 μl of a 3× kinase solution, and centrifuged at 800 rpm for 1 minute; • S4.4. The final concentrations of JAK1, JAK2, JAK3 and Tyk2 kinases in the reaction system are 20, 1, 1 and 1 nM, respectively. • S4.5. the reaction system is incubated at room temperature, wherein the incubation time of each kinase is different, and there are differences in incubation time of different batches of kinases. • S4.6. When the reaction reaches 20%-30%, the reaction system is added with 15 μl of the stop buffer to terminate the reaction, and centrifuged at 1,000 rpm for 2 minutes. • S4.7. The precipitate was placed onto a EZ Reader for plate reading. • S4.8. […]

[2] = target: Tyk2 (Homo sapiens, UniProt P29597); assay: Inhibition of JAK kinase activity, EZ Reader microfluidic phosphorylation of peptide substrate: Tyk2; assay type: biochemical; settings: Tyk2 kinase 1 nM; highest final concentration 10 μM, 1:3 serial dilution, 8 points, duplicates
Sequence of Tyk2 (P29597 whole entry): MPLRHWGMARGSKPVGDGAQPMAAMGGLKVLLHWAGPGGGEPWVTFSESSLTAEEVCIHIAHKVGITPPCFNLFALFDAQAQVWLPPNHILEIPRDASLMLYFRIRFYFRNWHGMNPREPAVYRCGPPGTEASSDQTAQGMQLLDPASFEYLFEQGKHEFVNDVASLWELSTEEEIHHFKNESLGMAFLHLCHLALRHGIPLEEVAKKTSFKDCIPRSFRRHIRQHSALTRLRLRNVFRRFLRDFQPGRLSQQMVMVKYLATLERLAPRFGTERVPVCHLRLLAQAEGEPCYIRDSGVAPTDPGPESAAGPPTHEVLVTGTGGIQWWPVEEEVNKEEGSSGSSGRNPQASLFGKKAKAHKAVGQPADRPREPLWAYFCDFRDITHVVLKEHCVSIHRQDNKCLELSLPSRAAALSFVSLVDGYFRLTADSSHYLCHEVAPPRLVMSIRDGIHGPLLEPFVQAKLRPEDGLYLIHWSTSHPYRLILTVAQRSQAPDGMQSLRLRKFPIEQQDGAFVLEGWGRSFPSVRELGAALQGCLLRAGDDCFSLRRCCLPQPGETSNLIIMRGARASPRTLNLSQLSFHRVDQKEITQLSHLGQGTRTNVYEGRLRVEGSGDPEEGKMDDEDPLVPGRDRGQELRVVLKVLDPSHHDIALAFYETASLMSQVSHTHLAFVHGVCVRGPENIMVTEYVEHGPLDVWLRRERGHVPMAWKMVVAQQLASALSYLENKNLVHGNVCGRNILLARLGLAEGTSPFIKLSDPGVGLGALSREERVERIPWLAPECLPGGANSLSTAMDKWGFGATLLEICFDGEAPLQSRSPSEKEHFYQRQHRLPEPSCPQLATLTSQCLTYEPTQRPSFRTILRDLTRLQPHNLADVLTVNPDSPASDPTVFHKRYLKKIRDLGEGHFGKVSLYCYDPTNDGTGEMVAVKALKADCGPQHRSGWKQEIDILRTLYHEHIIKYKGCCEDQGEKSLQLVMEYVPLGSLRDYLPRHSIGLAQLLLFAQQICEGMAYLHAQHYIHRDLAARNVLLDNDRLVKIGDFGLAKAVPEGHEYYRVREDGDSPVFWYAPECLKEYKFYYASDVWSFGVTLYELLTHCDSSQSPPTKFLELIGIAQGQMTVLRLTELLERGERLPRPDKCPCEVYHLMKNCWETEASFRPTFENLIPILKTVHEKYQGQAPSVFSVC
Excerpt: as §1, §2, §3, §4, §5

Sequence of JAK1 (P23458 whole entry): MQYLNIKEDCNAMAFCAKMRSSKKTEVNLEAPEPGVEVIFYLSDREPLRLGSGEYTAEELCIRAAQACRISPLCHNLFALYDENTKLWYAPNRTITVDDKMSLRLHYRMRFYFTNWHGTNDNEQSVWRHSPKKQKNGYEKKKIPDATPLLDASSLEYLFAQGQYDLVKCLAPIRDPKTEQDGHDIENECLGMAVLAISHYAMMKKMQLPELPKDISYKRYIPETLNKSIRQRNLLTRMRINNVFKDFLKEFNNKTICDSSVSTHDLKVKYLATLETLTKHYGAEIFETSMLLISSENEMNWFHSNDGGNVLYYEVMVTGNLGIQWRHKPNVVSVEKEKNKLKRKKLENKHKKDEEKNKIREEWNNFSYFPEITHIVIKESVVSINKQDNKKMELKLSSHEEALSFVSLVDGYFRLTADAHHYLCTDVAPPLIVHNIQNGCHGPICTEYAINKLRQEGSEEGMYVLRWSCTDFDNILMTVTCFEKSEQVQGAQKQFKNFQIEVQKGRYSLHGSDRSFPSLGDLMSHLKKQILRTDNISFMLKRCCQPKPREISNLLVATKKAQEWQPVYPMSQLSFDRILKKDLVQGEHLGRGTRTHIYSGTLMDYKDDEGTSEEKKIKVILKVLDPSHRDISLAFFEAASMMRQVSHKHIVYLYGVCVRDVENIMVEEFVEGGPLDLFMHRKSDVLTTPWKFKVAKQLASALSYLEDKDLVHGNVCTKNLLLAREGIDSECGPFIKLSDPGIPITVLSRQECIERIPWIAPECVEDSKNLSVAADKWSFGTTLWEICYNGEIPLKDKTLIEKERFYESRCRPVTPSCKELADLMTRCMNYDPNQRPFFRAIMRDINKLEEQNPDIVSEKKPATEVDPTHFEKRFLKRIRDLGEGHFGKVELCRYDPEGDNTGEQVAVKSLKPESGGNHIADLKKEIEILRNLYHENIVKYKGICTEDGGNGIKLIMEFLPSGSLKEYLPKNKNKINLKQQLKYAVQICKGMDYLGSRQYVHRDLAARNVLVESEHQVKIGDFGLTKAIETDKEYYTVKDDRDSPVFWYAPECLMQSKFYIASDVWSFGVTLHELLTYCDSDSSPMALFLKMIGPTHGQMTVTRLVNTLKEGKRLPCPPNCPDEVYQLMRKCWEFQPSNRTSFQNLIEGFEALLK

`Cn1cc(Nc2nccc(-c3ccc(C4(CC#N)CN(C(=O)C5CC5)C4)cc3)n2)cn1` [TDM-180880, 2-(1-(cyclopropanecarbonyl)-3-(4-(2-((1-methyl-1H-pyrazol-4-yl)amino)pyrimidin-4-yl)phenyl)azetidin-3-yl)acetonitrile] showed an IC50 [1] of 1 to 10 µM and an IC50 [2] of 1 to 10 µM.

Work on `COC(=O)CS(=O)(=O)N1CC(CC#N)(n2cc(-c3ccnc(Nc4cnn(C)c4)n3)cn2)C1` [TDM-180930] yielded an IC50 [1] of 0.1 to 1 µM and an IC50 [2] of 0.1 to 1 µM.

For `Cn1cc(Nc2nccc(-c3cnn(C4(CC#N)CN(S(=O)(=O)CC5CC5)C4)c3)n2)cn1` [TDM-180931, 2-(1-((cyclopropylmethyl)sulfonyl)-3-(4-(2-((1-methyl-1H-pyrazol-4-yl)amino)pyrimidin-4-yl)-1H-pyrazol-1-yl)azetidin-3-yl)acetonitrile], the IC50 [1] was 0.1 to 1 µM and the IC50 [2] was 0.1 to 1 µM.

With `Cn1cc(Nc2nccc(-c3ccc(C4(CC#N)CN(C(=O)CC(F)(F)F)C4)cc3)n2)cn1` [TDM-180873, 2-(3-(4-(2-((1-methyl-1H-pyrazol-4-yl)amino)pyrimidin-4-yl)phenyl)-1-(3,3,3-trifluoropropanol)azetidin-3-yl)acetonitrile] the IC50 [1] was 0.1 to 1 µM and the IC50 [2] was 0.1 to 1 µM.

`Cn1cc(Nc2nccc(-c3cnn(C4(CC#N)CN(S(=O)(=O)CC(F)(F)F)C4)c3)n2)cn1` [TDM-180928, 2-(3-(4-(2-((1-methyl-1H-pyrazol-4-yl)amino)pyrimidin-4-yl)-1H-pyrazol-1-yl)-1-((2,2,2-trifluoroethyl)sulfonyl)azetidin-3-yl)acetonitrile] was tested, and the IC50 [1] was 0.1 to 1 µM and the IC50 [2] was < 0.1 µM.

Work on `Cn1cc(Nc2nccc(-c3ccn(C4(CC#N)CN(C(=O)C5CC5)C4)n3)n2)cn1` [TDM-180858, 2-(1-(cyclopropanecarbonyl)-3-(3-(2-((1-methy 1-1H-pyrazol-4-yl)amino)pyrimidin-4-yl)-1H-pyrazol-1-yl)azetidinpyridin-3-yl)acetonitrile] yielded an IC50 [1] of 1 to 10 µM and an IC50 [2] of 1 to 10 µM.

Compound `Cn1cc(Nc2nccc(-c3ccn(C4(CC#N)CN(C(=O)[C@H]5CC5(F)F)C4)c3)n2)cn1` [TDM-180938, (R)-2-(1-(2,2-difluorocyclopropane-1-carbonyl)-3-(3-(2-((1-methyl-1H-pyrazol-4-yl)amino)pyrimidin-4-yl)-1H-pyrrol-1-yl)azetidin-3-yl)acetonitrile] has an IC50 [1] of 0.1 to 1 µM and an IC50 [2] of 0.1 to 1 µM.

`Cn1cc(Nc2nccc(-c3ccn(C4(CC#N)CN(S(=O)(=O)C5CC5)C4)n3)n2)cn1` [TDM-180915, 2-(1-(cyclopropylsulfonyl)-3-(3-(2-((1-methyl-1H-pyrazol-4-yl)amino)pyrimidin-4-yl)-1H-pyrazol-1-yl)azetidinpyridin-3-yl)acetonitrile] was tested, and the IC50 [1] was 0.1 to 1 µM and the IC50 [2] was 0.1 to 1 µM.

With `CC(C)S(=O)(=O)N1CC(CC#N)(n2cc(-c3ccnc(Nc4cnn(C)c4)n3)cn2)C1` [TDM-180932, 2-(1-(isopropylsulfonyl)-3-(4-(2-((1-methyl-1H-pyrazol-4-yl)amino)pyrimidin-4-yl)-1H-pyrazol-1-yl)azetidinpyridin-3-yl)acetonitrile] the IC50 [1] was 0.1 to 1 µM and the IC50 [2] was 0.1 to 1 µM.

`Cn1cc(Nc2nccc(-c3ccc(C4(CC#N)CN(C(=O)CC#N)C4)cc3)n2)cn1` [TDM-180871, 3-(3-(cyanomethyl)-3-(4-(2-((1-methyl-1H-pyrazol-4-yl)amino)pyrimidin-4-yl)phenyl)azetidin-1-yl)-3-oxopropionitrile] was tested, and the IC50 [1] was 0.1 to 1 µM and the IC50 [2] was 0.1 to 1 µM.

With `Cn1cc(Nc2nccc(-c3ccn(C4(CC#N)CN(S(=O)(=O)CC(F)(F)F)C4)c3)n2)cn1` [TDM-180866, 2-(3-(3-(2-((1-methyl-1H-pyrazol-4-yl)amino)pyrimidin-4-yl)-1H-pyrrol-1-yl)-1-((2,2,2-trifluoroethyl)sulfonyl)azetidin-3-yl)acetonitrile] the IC50 [1] was < 0.1 µM and the IC50 [2] was < 0.1 µM.

Compound `COC(=O)CCS(=O)(=O)N1CC(CC#N)(n2cc(-c3ccnc(Nc4cnn(C)c4)n3)cn2)C1` [TDM-180927, Ethyl methyl-3-((3-(cyanomethyl)-3-(4-(2-((1-methyl-1H-pyrazol-4-yl)amino)pyrimidin-4-yl)-1H-pyrazol-1-yl)azetidineazetidin-1-yl)sulfonyl)propionate] has an IC50 [1] of 0.1 to 1 µM and an IC50 [2] of 0.1 to 1 µM.

For `Cn1cc(Nc2nccc(-c3ccn(C4(CC#N)CN(C(=O)CC(F)(F)F)C4)n3)n2)cn1` [TDM-180860, 2-(3-(3-(2-((1-methyl-1H-pyrazol-4-yl)amino)pyrimidin-4-yl)-1H-pyrazol-1-yl)-1-(3,3,3-trifluoropropionyl)azetidin-3-yl)acetonitrile], the IC50 [1] was 0.1 to 1 µM and the IC50 [2] was 0.1 to 1 µM.

`CCCS(=O)(=O)N1CC(CC#N)(n2ccc(-c3ccnc(Nc4cnn(C)c4)n3)n2)C1` [TDM-180916, 2-(3-(3-(2-((1-methyl-1H-pyrazol-4-yl)amino)pyrimidin-4-yl)-1H-pyrazol-1-yl)-1-(propylsulfonyl)azacyclobutanpyridin-3-yl)acetonitrile] was tested, and the IC50 [1] was 0.1 to 1 µM and the IC50 [2] was 1 to 10 µM.

For `Cn1cc(Nc2nccc(-c3ccn(C4(CC#N)CN(C(=O)CO)C4)c3)n2)cn1` [TDM-180786], the IC50 [1] was 1 to 10 µM and the IC50 [2] was 1 to 10 µM.

For `COCC(=O)N1CC(CC#N)(n2cc(-c3ccnc(Nc4cnn(C)c4)n3)cn2)C1` [TDM-180765, 2-(1-(2-methoxyacetyl)-3-(4-(2-((1-methyl-1H-pyrazol-4-yl)amino)pyrimidin-4-yl)-1H-pyrazol-1-yl)azetidin-3-yl)acetonitrile], the IC50 [1] was 1 to 10 µM and the IC50 [2] was 1 to 10 µM.

For `Cn1cc(Nc2nccc(-c3ccn(C4(CC#N)CN(C(=O)CC#N)C4)n3)n2)cn1` [TDM-180861, 3-(3-(cyanomethyl)-3-(3-(2-((1-methyl-1H-pyrazol-4-yl)amino)pyrimidin-4-yl)-1H-pyrazol-1-yl)azetidinpiperazin-1-yl)-3-oxypropionitrile], the IC50 [1] was 1 to 10 µM and the IC50 [2] was 1 to 10 µM.

`Cn1cc(Nc2nccc(-c3cnn(C4(CC#N)CN(C(=O)CO)C4)c3)n2)cn1` [TDM-180810, 2-(1-(2-hydroxyacetyl)-3-(4-(2-((1-methyl-1H-pyrazol-4-yl)amino)pyrimidin-4-yl)-1H-pyrazol-1-yl)azetidin-3-yl)acetonitrile] was tested, and the IC50 [1] was 1 to 10 µM and the IC50 [2] was 1 to 10 µM.

Compound `COCC(=O)N1CC(CC#N)(n2ccc(-c3ccnc(Nc4cnn(C)c4)n3)c2)C1` [TDM-180769, 2-(1-(2-methoxyacetyl)-3-(3-(2-((1-methyl-1H-pyrazol-4-yl)amino)pyrimidin-4-yl)-1H-pyrrol-1-yl)azetidin-3-yl)acetonitrile] has an IC50 [1] of 1 to 10 µM and an IC50 [2] of 1 to 10 µM.

Compound `Cn1cc(Nc2nccc(-c3ccc(C4(CC#N)CN(C(=O)C5CC5(F)F)C4)cc3)n2)cn1` (stereo not drawn) [TDM-180872, 2-(1-(2,2-difluorocyclo-1-carbonyl)-3-(4-(2-((1-methyl-1H-pyrazol-4-yl)amino)pyrimidin-4-yl)phenyl)azetidin-3-yl)acetonitrile] has an IC50 [1] of 0.1 to 1 µM and an IC50 [2] of 0.1 to 1 µM.

`Cn1cc(Nc2nccc(-c3ccn(C4(CC#N)CN(S(=O)(=O)CC(F)(F)F)C4)n3)n2)cn1` [TDM-180918, 2-(3-(3-(2-((1-methyl-1H-pyrazol-4-yl)amino)pyrimidin-4-yl)-1H-pyrazol-1-yl)-1-((2,2,2-trifluoroethyl)sulfonyl)azetidin-3-yl)acetonitrile] showed an IC50 [1] of 1 to 10 µM and an IC50 [2] of 1 to 10 µM.
